Assay results from patent US20230212221A1, “Novel Therapeutic Uses of Mu-Opiate Receptor Peptides” (Cytogel Pharma, LLC, priority 2012, published 2023).
Where two headings read alike, the source gives them in different places.

Columns and labels:
[1] = target: T1, human mu-opioid receptor (hOPRM1) (Homo sapiens, UniProt P35372); test: cell-based
T1 construct: expressed in transfected cells
Method: The effect of mu-opioid receptor agonists on beta-arrestin recruitment is determined using the PathHunter™ beta-arrestin assay. Briefly, PathHunter™ cell lines expressing human mu-opioid receptor (hOPRM1) are seeded in 384-well microplates at a density of 5,000 cells/well in a total volume of 20 μl, and are allowed to adhere and recover overnight. […] The cells are incubated with the mu-opioid receptor agonist at 37° C. for 90 minutes. The experiment is performed in duplicate.
Microplates are read following signal generation with a PerkinElmer Envision™ instrument for chemiluminescent signal detection.
Percentage activity is calculated using the following formula: % Activity=100%×(mean RLU (relative luminescence unit) of test sample−mean RLU of vehicle control)/(mean MAX RLU control ligand −mean RLU of vehicle control)).

[2] = target: T1, human mu-opioid receptor (hOPRM1); test: cell-based; remark: listed apart in the source
Method: The effect of mu-opioid receptor agonists on the inhibition of cAMP production is determined using the […]. Briefly, cAMP Hunter™ cell lines expressing human mu-opioid receptor (hOPRM1) are seeded in 384-well microplates at a density of 10,000 cells/well in a total volume of 20 μl, and are allowed to adhere and recover overnight. […] The cells are incubated with the mu-opioid receptor agonist in the presence of 20 μM forskolin at 37° C. for 30 minutes. The experiment is performed in duplicate.
Assay signal is generated through incubation with 20 μL cAMP XS+ED/CL lysis cocktail for one hour followed by incubation with 20 μL cAMP XS+EA reagent for three hours at room temperature. Microplates are read following signal generation with a PerkinElmer Envision™ instrument for chemiluminescent signal detection.
Percentage activity is calculated using the following formula: % Activity=100%×(1−(mean RLU of test sample−mean RLU of MAX control)/(mean RLU of vehicle control−mean RLU of MAXcontrol).

delta receptors = delta receptors (Homo sapiens, UniProt P41143); details: relative to mu-opiate receptor binding
Chain of delta receptors (P41143 whole entry): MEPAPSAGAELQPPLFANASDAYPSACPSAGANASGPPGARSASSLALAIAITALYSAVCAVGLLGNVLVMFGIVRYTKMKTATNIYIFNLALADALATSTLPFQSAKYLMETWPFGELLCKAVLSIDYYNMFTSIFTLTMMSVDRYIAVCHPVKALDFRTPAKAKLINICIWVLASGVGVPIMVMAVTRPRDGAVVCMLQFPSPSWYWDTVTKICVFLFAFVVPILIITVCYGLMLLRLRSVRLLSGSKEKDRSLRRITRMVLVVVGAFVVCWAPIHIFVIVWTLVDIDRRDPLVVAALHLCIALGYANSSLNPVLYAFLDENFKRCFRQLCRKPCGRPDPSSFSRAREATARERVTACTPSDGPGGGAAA

T1 sequence (P35372 whole entry): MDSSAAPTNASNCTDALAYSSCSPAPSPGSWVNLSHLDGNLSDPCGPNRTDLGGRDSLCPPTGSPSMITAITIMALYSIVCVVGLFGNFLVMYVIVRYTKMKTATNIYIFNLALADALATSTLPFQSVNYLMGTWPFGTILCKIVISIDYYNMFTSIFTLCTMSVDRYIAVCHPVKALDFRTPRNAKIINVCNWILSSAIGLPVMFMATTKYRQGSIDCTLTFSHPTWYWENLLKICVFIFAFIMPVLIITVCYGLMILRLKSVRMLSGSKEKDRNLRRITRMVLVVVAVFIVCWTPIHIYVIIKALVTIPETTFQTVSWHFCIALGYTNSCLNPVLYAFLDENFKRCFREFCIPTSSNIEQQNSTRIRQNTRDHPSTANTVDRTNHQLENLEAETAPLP

What does the source list for met-enkephalin [reference compound]?
Max Percent Activity, beta-arrestin recruitment [1]: 100.1%; Max Percent Activity, inhibition of cAMP production [2]: 102.800%

How did the “fold weaker binding to delta receptors” value (delta receptors) turn out when H-Tyr-Pro-Trp-Phe-NH2 [SEQ ID NO:1] was run?
The value was “over 4,000 fold”.

What does the source list for `NC(Cc1ccc(O)cc1)C(=O)NC1CCCCNC(=O)C(Cc2ccccc2)NC(=O)C(Cc2c[nH]c3ccccc23)NC1=O` [CYT-1010, H-Tyr-c-[D-Lys-Trp-Phe]]?
EC50 ([1]; PathHunter cells expressing hOPRM1, 90 minutes at 37° C., duplicate, read-out: EC50 (nM), beta-arrestin recruitment): 13.1 nM; Max Percent Activity, beta-arrestin recruitment ([1]; normalized to control ligand and vehicle, PathHunter cells expressing hOPRM1): 121.2%; EC50 ([2]; cAMP Hunter cells expressing hOPRM1, 20 μM forskolin, 30 minutes at 37° C., duplicate, read-out: EC50 (nM), inhibition of cAMP production): 0.0053 nM; Max Percent Activity, inhibition of cAMP production ([2]; normalized to control ligand and vehicle, 20 μM forskolin): 98.350%
